Assay results as given in US20160120915A1, “METHODS FOR MANIPULATING IMMUNE RESPONSES BY ALTERING MICROBIOTA” (NEW YORK UNIVERSITY, priority 2013, published 2016).

Tests used:
ileal tissue = assay: TimeSTAT: expression of immunological markers in ileal tissue by qPCR; assay type: in vivo, C57BL/6J mice; settings: 20 weeks of age
From the text: C57BL/6J (Jackson Labs, Bar Harbor, Me.) mice either received no antibiotics (control, females n=5, males n=5) or continuous STAT penicillin starting at birth (STATb, females n=4, males n=5), or at weaning at 4 weeks (STATw, females n=5, males n=5). Mice were weaned at 4 weeks onto normal chow (13.2% fat, 5053 PicoLab Rodent Diet 20, LabDiet, Brentwood, Mo.).
Both STATw and STATb remained on lifelong STAT after initial exposure. Mice were sacrificed at 20 weeks of age. The terminal[1 cm] ileum without Peyer's Patches [TI-] was collected for gene expression analysis by qPCR.
Total RNA was extracted from mouse tissues using the RNeasy Mini Kit (Qiagen), according to the manufacturer's instructions. Total RNA was reverse transcribed to cDNA using the Verso™ cDNA Synthesis Kit (Thermo Scientific). To generate standards for expression analysis of each target gene, the cDNA region of interest was PCR-amplified and the PCR product was cloned into pGEM-T easy (Promega). qPCR was performed with LightCycler 480 SYBR Green I Master mix (Roche) and run in a LightCycler 480 system (Roche). Target mRNA was normalized to GAPDH mRNA as an internal control in each sample.
Both STATw and STATb remained on lifelong STAT after initial exposure. Expression of immunological markers in ileal tissue was measured by qPCP at 20 weeks of age in both female and male mice.

[1] = system: 547 genes related to immunology in ileal tissue; assay: Ileal gene expression profiling via Nanostring Immunology Panel, STAT; assay type: in vivo, C57BL6J mice; settings: for Significant Changes Down (ileal Nanostring) / Significant Changes Total (ileal Nanostring) / Significant Changes Up (ileal Nanostring): 8-week old mice
Protocol: RNA was extracted from ileal tissue using the miRNeasy mini kit (Qiagen, Redwood City, Calif., USA) at 8 weeks of age and the expression levels of 547 genes related to immunology were measured by nCounter GX Mouse Immunology Kit (Nanostring Technologies, Seattle, Wash., USA). Significant differences between treatment and control were determined by t-test. For functional characterization, the significant changes were analyzed by Ingenuity Pathway Analysis (Qiagen, Redwood City, Calif.).
Specifically, STAT decreased 111 and 74 genes and increased only 1 and 7 genes in male and female mice, respectively, with numerous consistencies across gender (FIG. 10A-C and Table 2).

## CC1(C)S[C@@H]2[C@H](NC(=O)COc3ccccc3)C(=O)N2[C@H]1C(=O)[O-].[K+] [STAT, penicillin VK]
Ileal tissue; female mice, STAT from weaning or birth vs control
  ileal expression of Th17 transcription factor (RORγT): significant reductions
Ileal tissue; female mice, STAT vs control
  ileal expression of J-chain: significant reductions
  ileal expression of Reg3γ: significant reductions
  ileal expression of SAA1/SAA2: significant reductions
  ileal expression of SSA3: significant reductions
  ileal expression of cytokine: significant reductions
  ileal expression of cytokine TH-17A: significant reductions
  ileal expression of defensin β1 (Defb1): significant reductions
  ileal expression of polymeric Ig receptor (pIgR): significant reductions
Ileal tissue; male mice, STAT vs control
  ileal expression of J-chain: lacked differences
  ileal expression of RORγt: lacked differences
  ileal expression of pIgR: lacked differences
[1]; STAT-Female vs control
  Significant Changes Down (ileal Nanostring): 74
  Significant Changes Total (ileal Nanostring): 81
  Significant Changes Up (ileal Nanostring): 7
[1]; STAT-Male vs control
  Significant Changes Down (ileal Nanostring): 111
  Significant Changes Total (ileal Nanostring): 112
[1]; STAT-Male vs control, n=4 per group, t-test <0.05
  Significant Changes Up (ileal Nanostring): 1
[1]; Shared: STAT-F + Recip-F
  Significant Changes Down, shared: 1
  Significant Changes Total, shared: 1
  Significant Changes Up, shared: 0
[1]; Shared: STAT-M + Recip-F
  Significant Changes Down, shared: 3
  Significant Changes Total, shared: 3
  Significant Changes Up, shared: 0
[1]; Shared: STAT-M + STAT-F
  Significant Changes Down, shared: 37
  Significant Changes Total, shared: 37
  Significant Changes Up, shared: 0
